Measured values from patent US11091486B2, “Process for the preparation of pyrazolo[1,5-a]pyrimidines and salts thereof” (Array BioPharma Inc., priority 2016, dated 2021).

Experiments:
Type in all cases: physicochemical
[1] = Salt stability studies, 40° C./75% RH for 1 week, XRPD
Description: Recovered salts were placed in an oven at 40° C./75% RH for 1 week, and the resultant materials were analyzed by XRPD to determine any changes to form or crystallinity.

[2] = Dynamic vapor sorption (DVS); settings: at 90% RH
Description: Approximately, 10 mg of sample was placed into a mesh vapor sorption balance pan and loaded into a DVS-1 dynamic vapor sorption balance by Surface Measurement Systems. The sample was subjected to a ramping profile from 40-90% relative humidity (RH) at 10% increments, maintaining the sample at each step until a stable weight had been achieved (99.5% step completion). After completion of the sorption cycle, the sample was dried using the same procedure to 0% RH and then a second sorption cycle back to 40% RH. The weight change during the sorption/desorption cycles were plotted, allowing for the hygroscopic nature of the sample to be determined. XRPD analysis was then carried out on any solid retained.

[3] = Gravimetric vapor sorption (GVS); settings: at 90% RH
Description: Approximately 10-20 mg of sample was placed into a mesh vapor sorption balance pan and loaded into an IGASorp Moisture Sorption Analyzer balance by Hiden Analytical. […] After completion of the sorption cycle, the sample was dried using the same procedure to 0% RH, and finally taken back to the starting point of 40% RH. The weight change during the sorption/desorption cycles were plotted, allowing for the hygroscopic nature of the sample to be determined.

[4] = salt recovered from isopropanol

For `C[C@@H]1CCc2ncc(F)cc2[C@H]2CCCN2c2ccn3ncc(c3n2)C(=O)N1.Cc1ccc(S(=O)(=O)O)cc1`, the “Post-stability XRPD: changes to form or crystallinity” value (from here on “Post-stability XRPD: changes”) ([1]; salt recovered from acetone) was “become amorphous”.

In the case of `C[C@@H]1CCc2ncc(F)cc2[C@H]2CCCN2c2ccn3ncc(c3n2)C(=O)N1.O=C(O)CC(O)(CC(=O)O)C(=O)O` [Compound 1 citrate Form A], the “Hygroscopicity, mass uptake by DVS” value [2] is reported as “around 1.8%”, the “Post-stability XRPD: changes” value ([1]; salt recovered from TBME) is reported as “a decrease to crystallinity but no change to form” and the “Post-stability XRPD: changes” value ([1]; salt recovered from acetone) is reported as “a decrease to crystallinity but no change to form”.

With `C[C@@H]1CCc2ncc(F)cc2[C@H]2CCCN2c2ccn3ncc(c3n2)C(=O)N1` [Form I, (6R,15R)-9-fluoro-15-methyl-2,11,16,20,21,24-hexaazapentacyclo[16.5.2.0^2,6.0^7,12.0^21,25]pentacosa-1(24),7,9,11,18(25),19,22-heptaen-17-one] the “Hygroscopicity, mass uptake by DVS” value [2] was “about 0.7%” and the “Hygroscopicity, mass uptake by GVS” value [3] was “about 0.3%”.

In the case of `C[C@@H]1CCc2ncc(F)cc2[C@H]2CCCN2c2ccn3ncc(c3n2)C(=O)N1.O=S(=O)(O)c1ccccc1` [besylate pattern 1], the “Post-stability XRPD: changes” value ([1]; salt recovered from TBME) is reported as “preferred orientation but no changes to form”, the “Post-stability XRPD: changes” value ([1]; salt recovered from THF) is reported as “an increase to crystallinity but no changes to form” and the “Post-stability XRPD: changes” value ([1]; salt recovered from ethanol) is reported as “a decrease in crystallinity”.

In the case of `C[C@@H]1CCc2ncc(F)cc2[C@H]2CCCN2c2ccn3ncc(c3n2)C(=O)N1.O=C(O)C[C@H](O)C(=O)O` [crystalline L-malate], the “Post-stability XRPD: changes” value ([1]; salt recovered from TBME) is reported as “no change to crystallinity and form”.

In the case of `C[C@@H]1CCc2ncc(F)cc2[C@H]2CCCN2c2ccn3ncc(c3n2)C(=O)N1.O=C(O)/C=C/C(=O)O` [crystalline fumarate], the “Post-stability XRPD: changes” value ([1]; salt recovered from acetone) is reported as “a slight decrease to crystallinity however, no change to form”.

With `CS(=O)(=O)O.C[C@@H]1CCc2ncc(F)cc2[C@H]2CCCN2c2ccn3ncc(c3n2)C(=O)N1` [crystalline mesylate] the “Post-stability XRPD: changes” value ([1]; salt recovered from acetone) was “no changes to crystallinity or form”, the “Post-stability XRPD: changes” value [1, 4] was “a slight increase in crystallinity but no changes to form” and the “Post-stability XRPD: changes” value ([1]; salt recovered from methanol) was “a decrease in crystallinity but no changes to form”.

With `C[C@@H]1CCc2ncc(F)cc2[C@H]2CCCN2c2ccn3ncc(c3n2)C(=O)N1.O=C(O)CCC(=O)O` [crystalline succinate] the “Post-stability XRPD: changes” value ([1]; salt recovered from acetone) was “a decrease in crystallinity but no change to form”.

In the case of `C[C@@H]1CCc2ncc(F)cc2[C@H]2CCCN2c2ccn3ncc(c3n2)C(=O)N1` [edisylate], the “Post-stability XRPD: changes” value [1, 4] is reported as “become amorphous”.

For `C[C@@H]1CCc2ncc(F)cc2[C@H]2CCCN2c2ccn3ncc(c3n2)C(=O)N1.O=C(O)C(=O)O` [oxalate], the “Post-stability XRPD: changes” value ([1]; salt recovered from ethanol) was “a change in crystallinity and form” and the “Post-stability XRPD: changes” value ([1]; salt recovered from methanol) was “no change to crystallinity however, changes to form were seen”.
